Laboratory results: patent US9709558B2, “Compound arrays for sample profiling” (priority 2009, dated 2017)

Columns and labels:
[1] = system: influenza A/PR/8/34; type: in vivo, BALB/c mice; conditions: lethal challenge with influenza A/PR/8/34
[2] = system: whole virus; experiment: Serum IgG ELISA against whole virus in immunized mice; type: in vivo; conditions: archived murine serum samples
[3] = system: KLH; experiment: Anti-KLH serum IgG ELISA in immunized mice; type: in vivo; conditions: archived murine serum samples

Substance: keyhole limpet hemocyanin [KLH]
- outcome following lethal challenge [1]: no benefit over naives
- average IgG titer against whole virus [2]: 800
- average anti-KLH IgG titer [3]: 819,000
